Experimental data published in patent US9969687B2, “Compounds useful as CCR9 modulators” (Norgine B.V., priority 2013, dated 2018).

Target: CCR9 (Homo sapiens (Human), UniProt P51686)
Assay: FLIPR calcium flux assay using MOLT4 cells, TECK stimulation
Type: cell-based
Conditions: MOLT4 cells (human T-cell line)
Description: Biological Activity: FLIPR Assay Using MOLT4 Cells
A calcium flux assay was used to determine the ability of the compounds to interfere with the binding between CCR9 and its chemokine ligand (TECK) in MOLT4 cells (a human T-cell line). MOLT4 cells were seeded (100,000 cells/well) in corning cell culture plates (Cat #3603) in assay buffer (1×HBSS, 20 mM HEPES) containing 2.5 mM Probenecid. The plate was centrifuged at 1200 rpm for 3 minutes and incubated at 37° C./5% CO2 for 2 hours. A 0.3× Fluo-4 NW calcium dye was prepared in assay buffer containing 5 mM Probenecid and stored in the dark. Each well was loaded with 25 μl of 0.3× Fluo-4 NW calcium dye and incubated at 37° C./5% CO2 for 60 minutes and then at room temperature for 30 minutes. A half-log serially diluted concentration response curve was prepared at a 4× concentration for each (10 μM-0.1 nM final assay concentration) and 25 μL of the compound then transferred to the cells (100 μL final volume) for 60 minutes prior to stimulation (30 minutes at 37° C./5% CO2 and 30 minutes at room temperature). […] The increased in intracellular calcium levels was measured with the FLIPR instrument. The potency of the compound as CCR9 antagonist was calculated as an IC50 using GraphPad Prism software (variable slope four parameter). The Ki of the compound was determined from the IC50 values using the following equation. IC50/1+(Agonist (TECK) conc. used in assay/EC50 of agonist (TECK) generated on day of experiment) Ki calculation: […]

Sequence of CCR9 (P51686 whole entry): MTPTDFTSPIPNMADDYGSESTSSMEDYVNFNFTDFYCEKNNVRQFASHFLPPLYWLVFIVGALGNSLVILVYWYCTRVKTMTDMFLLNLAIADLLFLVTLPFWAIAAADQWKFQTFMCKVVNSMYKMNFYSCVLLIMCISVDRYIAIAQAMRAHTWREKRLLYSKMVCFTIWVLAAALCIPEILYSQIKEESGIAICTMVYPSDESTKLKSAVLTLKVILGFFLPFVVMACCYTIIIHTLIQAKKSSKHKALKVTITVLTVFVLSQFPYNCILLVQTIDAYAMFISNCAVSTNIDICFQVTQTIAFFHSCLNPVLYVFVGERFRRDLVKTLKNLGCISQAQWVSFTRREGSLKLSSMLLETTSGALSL

Structure (SMILES)	Ki
N#Cc1cccc(N2C(=O)c3cccc(NS(=O)(=O)c4ccc(OC(F)(F)F)cc4)c3C2=O)c1 [Compound 40]	1360 nM
CC(C)(C)c1ccc(S(=O)(=O)Nc2ccc(C#N)c3c2C(=O)N(Cc2cccc(C#N)c2)C3=O)cc1 [Compound 127, 4-(tert-butyl)-N-(7-cyano-2-(3-cyanobenzyl)-1,3-dioxoisoindolin-4-yl)benzenesulfonamide]	153 nM
Cc1ccc(N2C(=O)c3c(Cl)ccc(NS(=O)(=O)c4ccc(C(C)(C)C)cc4)c3C2=O)c[n+]1[O-] [Compound 205]	46 nM
Cn1cc(N2C(=O)c3c(Cl)ccc(NS(=O)(=O)c4ccc(C(C)(C)C)cc4)c3C2=O)c(C(=O)O)n1 [Compound 289]	104 nM
Cc1cc(C)nc(N2C(=O)c3c(Cl)ccc(NS(=O)(=O)c4ccc(C(C)(C)C)cc4)c3C2=O)n1 [Compound 240]	84 nM
COc1ccc(N2C(=O)c3c(Cl)ccc(NS(=O)(=O)c4ccc(C(C)(C)C)cc4)c3C2=O)[n+]([O-])c1C [Compound 265]	41 nM
CC(C)(C)c1ccc(S(=O)(=O)Nc2ccc(C#N)c3c2C(=O)N(C2CCOCC2)C3=O)cc1 [Compound 277]	28 nM
N#Cc1cccc(N2C(=O)c3c(Cl)ccc(NS(=O)(=O)c4ccc(OC(F)F)cc4)c3C2=O)c1 [Compound 124]	224 nM
CC(C)(C)c1ccc(S(=O)(=O)Nc2ccc(Cl)c3c2C(=O)N(c2ccc(F)nc2)C3=O)cc1 [Compound 187]	33 nM
Cn1cc(N2C(=O)c3c(Cl)ccc(NS(=O)(=O)c4ccc(C(F)(F)F)cc4)c3C2=O)cn1 [Compound 143]	64 nM
N#Cc1cccc(N2C(=O)c3c(Cl)ccc(NS(=O)(=O)c4ccc(OC(F)(F)F)cc4)c3C2=O)c1 [Compound 122]	175 nM
COc1cncc(N2C(=O)c3c(Cl)ccc(NS(=O)(=O)c4ccc(OC(F)(F)F)cc4)c3C2=O)c1 [Compound 94]	244 nM
Cc1ccc(NS(=O)(=O)c2ccc(C(F)(F)F)cc2)c2c1C(=O)N(Cc1cccnc1)C2=O [Compound 161]	568 nM
O=C1c2c(Cl)ccc(NS(=O)(=O)c3ccc(OC(F)F)cc3)c2C(=O)N1c1cccnc1 [Compound 52]	187 nM
CC(C)(C)c1ccc(S(=O)(=O)Nc2cccc3c2C(=O)N(c2ccc(C#N)cc2)C3=O)cc1 [Compound 36]	1210 nM
O=C1c2c(Cl)ccc(NS(=O)(=O)c3ccc(OC(F)F)cc3)c2C(=O)N1c1cn[nH]c1 [Compound 152]	245 nM
O=C1c2c(Cl)ccc(NS(=O)(=O)c3ccc(Cl)c(C(F)(F)F)c3)c2C(=O)N1c1cccnc1 [Compound 48]	171 nM
COc1cc(CN2C(=O)c3c(Cl)ccc(NS(=O)(=O)c4ccc(C(C)(C)C)cc4)c3C2=O)ccn1 [Compound 273]	108 nM
Cn1cnc(N2C(=O)c3c(Cl)ccc(NS(=O)(=O)c4ccc(C(F)(F)F)cc4)c3C2=O)c1 [Compound 154]	32 nM
O=C1c2cccc(NS(=O)(=O)c3cccc(C(F)(F)F)c3)c2C(=O)N1c1cccnc1 [Compound 4]	2710 nM
CC(C)(C)c1ccc(S(=O)(=O)Nc2ccc(Cl)c3c2C(=O)N(CCc2ccc[n+]([O-])c2)C3=O)cc1 [Compound 117, 3-(2-(4-(4-(tert-butyl)phenylsulfonamido)-7-chloro-1,3-dioxoisoindolin-2-yl)ethyl)pyridine 1-oxide]	184 nM
Cc1ccc(NS(=O)(=O)c2ccc(C(C)(C)C)cc2)c2c1C(=O)N(c1cccnc1)C2=O [Compound 157, 4-(tert-butyl)-N-(7-methyl-1,3-dioxo-2-(pyridin-3-yl)isoindolin-4-yl)benzenesulfonamide]	189 nM
CCOc1nc(C)ccc1CN1C(=O)c2c(Cl)ccc(NS(=O)(=O)c3ccc(C(C)(C)C)cc3)c2C1=O [Compound 246]	125 nM
O=C1c2cccc(NS(=O)(=O)c3ccc(OC(F)(F)F)cc3)c2C(=O)N1c1cccnc1 [Compound 5]	123 nM
Cn1cc(N2C(=O)c3c(Cl)ccc(NS(=O)(=O)c4ccc(C(C)(C)C)cc4)c3C2=O)cn1 [Compound 142]	41 nM
CC(C)c1ccc(S(=O)(=O)Nc2ccc(Cl)c3c2C(=O)N(c2cn[nH]c2)C3=O)cc1 [Compound 151]	42 nM
